Experimental data reported in patent US6921824B1, “Ruthenium dimeric complexes suitable as antimetastatic and antineoplastic agents” (priority 1999, dated 2005).
Marks after values point to notes of the source that are not given here.

How the values were obtained:
[1] = test system: murine TS/A adenocarcinoma cells; experiment: In vitro cytotoxicity, MTT analysis (mitochondrial activity); assay type: cell-based
Procedure: (§1) In vitro cytotoxicity of complexes of the present invention on murine TS/A adenocarcinoma cells.
(§2) 4×10^3 murine TS/A adenocarcinoma cells resuspended in 200 μl RPMI-1640 medium supplemented with 10% FCS (fetal calf serum), 2 mM glutamine and 50 μg/ml gentamicin sulphate, were seeded in a 96-wells plate. After 24 hours incubation at 37° C., in 5% CO2, the complexes as described in example 4 (A), in example 7 (B), in example 8 (C) and in example 10 (D), each solubilised in RPMI-1640 medium supplemented with 5% FCS, 2 mM glutamine and 50 μg/ml gentamicin sulphate, were added to the cells, each at a final concentration of 10^−4, 10^−5 and 10^−6 M. Cell viability tests were performed after 24, 48 and 72 hours of exposure to the compounds by assessing both the effect on protein synthesis and on mitochondrial activity by means of colorimetric assays, respectively the solphorodamine B test (SRB) and the MTT analysis. Each value (optical density) is the average percentage ±S.E. versus the untreated controls.
(§3) Values such as *p<0.05, **p<0.01 indicate average values statistically different from the controls. Analysis of Variance and Dunnet test were used in the comparison analysis.
(§4) The results are reported in Table 3, wherein both the effect on protein synthesis (SRB) and the mitochondrial activity (MTT) are reported for each complexes tested at different dosages after different exposure time.

[2] = test system: MCa mammary carcinoma; experiment: Pre-surgical treatment: prevention of lung metastases formation in mice with MCa mammary carcinoma; assay type: in vivo; conditions: for Lung metastases Number % T/C / Lung metastases weight % T/C: Treated/Control; for Lung metastases Number mean / Lung metastases weight (mg) mean: evaluated day 29; for Body weight % var: variation day 11 to day 16 vs untreated controls; for Selectivity of action on lung metastases versus primary tumour: MCa mammary carcinoma model of the CBA mouse; for Number of lung metastases (in words) / Weight of lung metastases (in words): at two dose levels, pre-surgical treatment
Procedure: In vivo tests of the activity of the compounds according to the present invention in mice affected from MCa mammary carcinoma: prevention activity in the formation of lung metastases.
Five groups of CBA kin female mice weighing 23±3 g were inoculated with […] viable cells (as determined by the Trypan blue exclusion) of MCa mammary carcinoma in 0.05 ml Dulbecco's pH 7.4 buffered calcium and magnesium-free solution (PBS), by intramuscular injection with a sterile insulin syringe. The tumour cells were derived from donors of the same strain, injected with the same tumour cells, following the same procedures 2 weeks before. The suspension of tumour cells was prepared in PBS by mechanically mincing the tumour mass obtained from donor mice, and further removing tissue debris and cells by, respectively, filtration through a double layer of sterile gauze and centrifugation at 250× g for 10 minutes. Kin animals were obtained from a colony from Chester Beatthy from London (UK) which were grown in the University of Trieste animal house accordingly to the procedures accepted for the rearing of kin animals. The MCa mammary carcinoma tumour cell-line derived from a stock, stored in liquid nitrogen, of tumour cells obtained originally from Rudjer Boskovic Institute of Zagreb (HR).
From day 11 to day 16, after tumour cells implantation, five mice groups were treated intraperitoneally with a sterile insulin syringe, respectively with: • Group 1 Control (10 animals): 10 ml/kg of body weight/day of sterile and pyrogen-free physiological solution; • Group 2 (two subgroups a,b of five animals each): 7.5 (a), 15 (b) mg/kg of body weight/day of the compound prepared as described in Example 4 in sterile and pyrogen-free physiological solution; • Group 3 (2 subgroups c,d of five animals each): 15 (c), 30 (d) mg/kg of body weight/day of the compound prepared as described in Example 7 in sterile and pyrogen-free physiological solution; • Group 4 (2 subgroups e,f of 5 animals each): 25 (e), 50 (f) mg/kg of body weight/day of the compound prepared as described in Example 8 in sterile and pyrogen-free physiological solution; • Group 5 (2 subgroups g,h of 5 animals each): 12.5 (g), 25 (h) mg/kg of body weight/day of the compound prepared as described in Example 10 in sterile and pyrogen-free physiological solution.
The administered dosages were either approximated to LD0.1, or to half of it or to a quarter of it, as calculated separately in animals of the same strain and gender and with the same body weight, for an intraperitoneal treatment lasting 6 consecutive days, according to the method of Lichtfield and Wilcoxon, and with an observation time of 10 days since the last dose.
On day 17 since tumour cells implantation, the primary tumour was surgically removed, after general anesthesia of the animals by intraperitoneal injection of 125 mg/kg of Ketamine.
On day 29 since tumour cells implantation, the mice were sacrificed by cervical dislocation for the evaluation of lung metastases. The lungs were abducted from the animals immediately after sacrifice, divided in single lobes which then examined immediately with a low-magnification microscope equipped with a graduated ocular-grid for the measurement of the size of the metastases in which the a and b orthogonal axes (a≦b) were identified. Metastases were classified by size and the metastatic tumour weight for each animal was calculated as the sum of each single metastasis weight, each of them considered as a rotation solid developed around the above mentioned axes and calculated according to the formula (π/6)·a^2·b. The experimental data obtained were then processed by appropriate statistical tests. […]

[3] = test system: murine TS/A adenocarcinoma cells; experiment: In vitro cytotoxicity, SRB test (protein synthesis); assay type: cell-based
Procedure: as §1, §2, §3, §4

[4] = LD0.05 determination, intraperitoneal treatment for 6 consecutive days (Lichtfield and Wilcoxon); assay type: in vivo; conditions: observation time 10 days since last dose
Procedure: The dosages corresponding to the LD0.05, calculated separately in animals of the same strain and gender and having the same body weight, was administered intraperitoneally for 6 consecutive days, according to the method of Lichtfield and Wilcoxon, and with an observation time of 10 days since last dose.

[5] = 12.5 mg/kg/die i.p. day 11-16, pre-surgical
[6] = 25 mg/kg/die i.p. day 11-16, pre-surgical
[7] = 15 mg/kg/die i.p. day 11-16, pre-surgical
[8] = 30 mg/kg/die i.p. day 11-16, pre-surgical
[9] = 50 mg/kg/die i.p. day 11-16, pre-surgical

Compound | MTT optical density, average percentage ±S.E. versus untreated controls ([1]; 10^−4 M, exposure time 24 h) | MTT optical density, average percentage ±S.E. versus untreated controls ([1]; 10^−4 M, exposure time 48 h) | MTT optical density, average percentage ±S.E. versus untreated controls ([1]; 10^−4 M, exposure time 72 h) | MTT optical density, average percentage ±S.E. versus untreated controls ([1]; 10^−5 M, exposure time 24 h) [%] | MTT optical density, average percentage ±S.E. versus untreated controls ([1]; 10^−5 M, exposure time 48 h) [%] | MTT optical density, average percentage ±S.E. versus untreated controls ([1]; 10^−5 M, exposure time 72 h) [%] | MTT optical density, average percentage ±S.E. versus untreated controls ([1]; 10^−6 M, exposure time 24 h) [%] | MTT optical density, average percentage ±S.E. versus untreated controls ([1]; 10^−6 M, exposure time 48 h) [%] | MTT optical density, average percentage ±S.E. versus untreated controls ([1]; 10^−6 M, exposure time 72 h) [%] | Selectivity of action on lung metastases versus primary tumour [2] | SRB optical density, average percentage ±S.E. versus untreated controls ([3]; 10^−4 M, exposure time 24 h) | SRB optical density, average percentage ±S.E. versus untreated controls ([3]; 10^−4 M, exposure time 48 h) | SRB optical density, average percentage ±S.E. versus untreated controls ([3]; 10^−4 M, exposure time 72 h) | SRB optical density, average percentage ±S.E. versus untreated controls ([3]; 10^−5 M, exposure time 24 h) [%] | SRB optical density, average percentage ±S.E. versus untreated controls ([3]; 10^−5 M, exposure time 48 h) [%] | SRB optical density, average percentage ±S.E. versus untreated controls ([3]; 10^−5 M, exposure time 72 h) [%] | SRB optical density, average percentage ±S.E. versus untreated controls ([3]; 10^−6 M, exposure time 24 h) [%] | SRB optical density, average percentage ±S.E. versus untreated controls ([3]; 10^−6 M, exposure time 48 h) [%] | SRB optical density, average percentage ±S.E. versus untreated controls ([3]; 10^−6 M, exposure time 72 h) [%] | LD0.05 [4] | further results
C[SH](C)(=O)[Ru-]([Cl])([Cl])([Cl])([Cl])[n+]1ccc(CCc2cc[n+]([Ru-]([Cl])([Cl])([Cl])([Cl])[SH](C)(C)=O)cc2)cc1.[Na+].[Na+] [Example 10, [Na]2[trans-RuCl4(Me2SO)]2(μ-etbipy)] | 76 ± 9% | 65 ± 4** % | 76 ± 4** % | 97 ± 12 | 93 ± 2 | 84 ± 5 | 114 ± 7 | 109 ± 4 | 88 ± 4 | act selectively on lung metastases | 47 ± 2** % | 62 ± 14** % | 73 ± 2** % | 81 ± 8 | 94 ± 3 | 95 ± 1 | 102 ± 9 | 81 ± 5 | 93 ± 5 | 52 mg/kg of body weight/day | Lung metastases Number % T/C [2, 5]: 15%; Lung metastases weight % T/C [2, 5]: 6%; Lung metastases Number mean [2, 5]: 8.0; Lung metastases weight (mg) mean [2, 5]: 4.6 mg; Body weight % var ([2]; 12.5 mg/kg/die i.p. day 11-16): −2.8%; Lung metastases Number % T/C [2, 6]: 25%; Lung metastases weight % T/C [2, 6]: 1%; Lung metastases Number mean [2, 6]: 13.0; Lung metastases weight (mg) mean [2, 6]: 1.2 mg; Body weight % var ([2]; 25 mg/kg/die i.p. day 11-16): −1.1%; Number of lung metastases (in words) [2]: marked reduction; Weight of lung metastases (in words) [2]: even more marked reduction
C[SH](C)(=O)[Ru-]([Cl])([Cl])([Cl])([Cl])[n+]1ccc[n+]([Ru-]([Cl])([Cl])([Cl])([Cl])[SH](C)(C)=O)c1.[Na+].[Na+] [Example 7, [Na]2[trans-RuCl4(Me2SO)]2(μ-pym)] | 90 ± 10% | 71 ± 12* % | 60 ± 1** % | 117 ± 1 | 104 ± 9 | 93 ± 9 | 110 ± 2 | 110 ± 13 | 104 ± 8 | act selectively on lung metastases | 58 ± 2** % | 73 ± 8* % | 61 ± 2** % | 95 ± 9 | 108 ± 5 | 100 ± 1 | 101 ± 9 | 100 ± 3 | 95 ± 7 | 28 mg/kg of body weight/day | Lung metastases Number % T/C [2, 7]: 10%; Lung metastases weight % T/C [2, 7]: 2%; Lung metastases Number mean [2, 7]: 5.0; Lung metastases weight (mg) mean [2, 7]: 1.7 mg; Body weight % var ([2]; 15 mg/kg/die i.p. day 11-16): −1.4%; Lung metastases Number % T/C [2, 8]: 6%; Lung metastases weight % T/C [2, 8]: 1%; Lung metastases Number mean [2, 8]: 3.0; Lung metastases weight (mg) mean [2, 8]: 0.8 mg; Body weight % var ([2]; 30 mg/kg/die i.p. day 11-16): −2.7%; Number of lung metastases (in words) [2]: marked reduction; Weight of lung metastases (in words) [2]: even more marked reduction
[Na]2[trans-RuCl4(Me2SO)]2(μ-bipy) [Example 8] | 33 ± 5** % | 52 ± 9** % | 68 ± 4** % | 129 ± 9 | 91 ± 3 | 90 ± 2 | 91 ± 7 | 103 ± 9 | 93 ± 5 | act selectively on lung metastases | 16 ± 1** % | 49 ± 6** % | 78 ± 5** % | 102 ± 9 | 86 ± 9 | 88 ± 7 | 77 ± 6 | 92 ± 8 | 95 ± 2 | 51 mg/kg of body weight/day | Lung metastases Number % T/C [2, 6]: 213%; Lung metastases weight % T/C [2, 6]: 144%; Lung metastases Number mean [2, 6]: 111; Lung metastases weight (mg) mean [2, 6]: 119 mg; Body weight % var ([2]; 25 mg/kg/die i.p. day 11-16): −3.4%; Lung metastases Number % T/C [2, 9]: 15%; Lung metastases weight % T/C [2, 9]: 4%; Lung metastases Number mean [2, 9]: 8.0; Lung metastases weight (mg) mean [2, 9]: 3.1 mg; Body weight % var ([2]; 50 mg/kg/die i.p. day 11-16): −1.7%; Antiproliferative activity (in words) ([3]; SRB and MTT, up to 72 h): scarce and reversible
